Source: patent US6432921B1, “Thrombin inhibitors” (Akzo Nobel N.V., priority 1995, dated 2002)
pIC50: −log10 of the molar value.

Molecular target: T1, Human thrombin (Homo sapiens, UniProt P00734)
T1 construct: purchased Centraal Laboratorium voor Bloedtransfusie, Amsterdam, The Netherlands
Experiment: Anti-thrombin assay: rate of hydrolysis of chromogenic substrate S-2238 by thrombin
Format: biochemical
Conditions: TNP buffer pH 7.4, 37° C., substrate S-2238, absorbance at 405 nm; concentration causing 50% inhibition of the maximum absorbance of the blank
Description: Thrombin (Factor IIa) is a factor in the coagulation cascade.
The anti-thrombin activity of compounds of the present invention was assessed by measuring spectrophotometrically the rate of hydrolysis of the chromogenic substrate s-2238 exterted by thrombin. This assay for anti-thrombin activity in a buffer system was used to assess the IC50-value of a test compound.
Test medium: Tromethamine-NaCl-polyethylene glycol 6000 (TNP) buffer. Reference compound: I2581 (Kabi) Vehicle:TNP buffer. Solubilisation can be assisted with dimethylsulphoxide, methanol, ethanol, acetonitrile or tert.-butyl alcohol which are without adverse effects in concentrations up to 2.5% in the final reaction mixture.
Technique Reagents*: 1. Tromethamine-NaCl (TN) buffer. Composition of the buffer: Tromethamine(Tris) 6.057 g (50 mmol), NaCl 5.844 g (100 mmol), water to 1 l. The pH of the solution is adjusted to 7.4 at 37° C. with HCl (10 mmol·l^−1). 2. TNP buffer: Polyethylene glycol 6000 is dissolved in TN buffer to give a concentration of 3 g·l^−1. 3. S-2238 solution: One vial S-2238 (25 mg; Kabi Diagnostica, Sweden) is dissolved in 20 ml TN buffer to give a concentration of 1.25 mg·ml^−1 (2 mmol·l^−1). 4. Thrombin solution: Human thrombin (16 000 nKat·vial^−1; Centraal Laboratorium voor Bloedtransfusie, Amsterdam, The Netherlands) is dissolved in TNP buffer to give a stock solution of 835 nKat·ml^−1. Immediately before use this solution is diluted with TNP buffer to give a concentration of 3.34 nKat·ml^−1.
* All ingredients used are of analytical grade
For aqueous solutions ultrapure water (Milli-Q quality) is used.
Preparation of Test and Reference Compound Solutions
The test and reference compounds are dissolved in Milli-Q water to give stock concentrations of 10^−2 mol·l^−1. Each concentration is stepwise diluted with the vehicle to give concentrations of 10^−3, 10^−4 and 10^−5 mol·l^−1. […]
At room temperature 0.075 ml and 0.025 ml test compound or reference compound solutions or vehicle are alternately pipetted into the wells of a microtiter plate and these solutions are diluted with 0.115 ml and 0.0165 ml TNP buffer, respectively. […] Starting after 1 min of incubation, the absorbance of each sample at 405 nm is measured every 2 min. for a period of 90 min. using a kinetic microtiter plate reader (Twinreader plus, Flow Laboratories).
All data are collected in an IBM personal computer using LOTUS-MEASURE. For each compound concentration (expressed in mol·l^−1 reaction mixture) and for the blank the absorbance is plotted versus the reaction time in min.
Evaluation of responses: For each final concentration the maximum absorbance was calculated from the assay plot. […]

Row | Structure (SMILES) | pIC50
1 | NCCCCC(NC(=O)CN(C(=O)CCc1ccccc1)C1CCCC1)C(=O)C(=O)O (stereo not shown) [4(b), 3-Phenylpropionyl-(N-cyclopentyl)-Gly-LysΨ[COCO]—OH] | 5.36
2 | NCCCC[C@H](NC(=O)[C@@H]1CCCN1C(=O)[C@@H](Cc1ccc(F)cc1)NCC(=O)O)C(=O)c1nccs1 [Example 39, HOOC—CH2—D-p-F-Phe-Pro-Lys-(2-thiazolyl)] | 4.72
3 | NCCCCC(NC(=O)CN(C(=O)C(N)Cc1ccccc1)C1CCCC1)C(=O)c1nccs1 [2(e), H—D-Phe-(N-cyclopentyl)-Gly-Lys-(2-thiazolyl)] | 5.35
4 | NCCCCC(NC(=O)CN1CCCCC(NS(=O)(=O)Cc2ccccc2)C1=O)C(=O)C(=O)O (stereo not shown) [Example 41, BzlSO2-norLeu(cyclo)Gly-LysΨ[COCO]—OH] | 6.87
